Data taken from PubChem BioAssay AID1259407 (Chemical Carcinogenesis Research Information System (CCRIS), 2018).
The source made the active and inactive calls. How the calls were made is not given here.

Tested on: CCRIS mutagenicity, Ames/micronucleus/aberration tests
Assay: CCRIS mutagenicity studies
[1] = Test System: AMES SALMONELLA TYPHIMURIUM, Strain/Indicator: TA98, Metabolic Activation: NONE, Method: STANDARD PLATE
[2] = Test System: AMES SALMONELLA TYPHIMURIUM, Strain/Indicator: TA98, Metabolic Activation: RAT, LIVER, S-9, AROCLOR 1254, Method: STANDARD PLATE
[3] = Test System: AMES SALMONELLA TYPHIMURIUM, Strain/Indicator: TA100, Metabolic Activation: NONE, Method: STANDARD PLATE
[4] = Test System: AMES SALMONELLA TYPHIMURIUM, Strain/Indicator: TA100, Metabolic Activation: RAT, LIVER, S-9, AROCLOR 1254, Method: STANDARD PLATE
[5] = Test System: AMES SALMONELLA TYPHIMURIUM, Strain/Indicator: TA1535, Metabolic Activation: NONE, Method: STANDARD PLATE
[6] = Test System: AMES SALMONELLA TYPHIMURIUM, Strain/Indicator: TA1535, Metabolic Activation: RAT, LIVER, S-9, AROCLOR 1254, Method: STANDARD PLATE

`COc1cc2c(c(OC)c1OC)-c1ccc(OC)c(=O)cc1[C@@H](NC(C)=O)CC2` was tested, and the mutagenic call (End Point: IN VITRO CHROMOSOMAL ABERRATIONS, Test System: CHINESE HAMSTER OVARY CELLS, Metabolic Activation: NONE) was “active; positive (ploidy changes)”, the mutagenic call (End Point: IN VITRO CHROMOSOMAL ABERRATIONS, Test System: CHINESE HAMSTER OVARY CELLS, Metabolic Activation: RAT, LIVER, S-9, AROCLOR 1254) was “inactive; negative” and the mutagenic call (End Point: IN VITRO MICRONUCLEUS, Test System: CHL/IU CELLS, Metabolic Activation: NONE) was “active; positive”. The mutagenic call (End Point: IN VIVO MICRONUCLEUS, Test System: BLOOD ERYTHROCYTES, Species: MOUSE, Strain/Sex: CD-1/MALE, Route: ORAL) was “active; positive”, the mutagenic call (End Point: In vitro micronucleus, Test System: Mouse lymphoma L5178Y cells, Metabolic Activation: None) was “active; positive” and the mutagenic call (End Point: In vivo micronucleus, Test System: Micronucleated, binucleated and multinucleated hepatocytes, Species: Mouse, Strain/Sex: ddY/Male, Route: Intravenous) was “active; positive for binucleated and multinucleated cells when agent administered after”. For the same compound, the mutagenic call (Test System: AMES SALMONELLA TYPHIMURIUM, Strain/Indicator: TA98, Metabolic Activation: HAMSTER, LIVER, S-9, AROCLOR 1254, Method: STANDARD PLATE) was “inactive; negative”, the mutagenic call [1] was “inactive; negative” and the mutagenic call [2] was “inactive; negative”. For the same compound, the mutagenic call (Test System: AMES SALMONELLA TYPHIMURIUM, Strain/Indicator: TA100, Metabolic Activation: HAMSTER, LIVER, S-9, AROCLOR 1254, Method: STANDARD PLATE) was “inactive; negative”, the mutagenic call [3] was “inactive; negative” and the mutagenic call [4] was “inactive; negative”. The mutagenic call (Test System: AMES SALMONELLA TYPHIMURIUM, Strain/Indicator: TA1535, Metabolic Activation: HAMSTER, LIVER, S-9, AROCLOR 1254, Method: STANDARD PLATE) was “inactive; negative”, the mutagenic call [5] was “inactive; negative” and the mutagenic call [6] was “inactive; negative”. For the same compound, the mutagenic call (Test System: AMES SALMONELLA TYPHIMURIUM, Strain/Indicator: TA1537, Metabolic Activation: HAMSTER, LIVER, S-9, AROCLOR 1254, Method: STANDARD PLATE) was “inactive; negative”, the mutagenic call (Test System: AMES SALMONELLA TYPHIMURIUM, Strain/Indicator: TA1537, Metabolic Activation: NONE, Method: STANDARD PLATE) was “inactive; negative” and the mutagenic call (Test System: AMES SALMONELLA TYPHIMURIUM, Strain/Indicator: TA1537, Metabolic Activation: RAT, LIVER, S-9, AROCLOR 1254, Method: STANDARD PLATE) was “inactive; negative”. The mutagenic call (Test System: AMES SALMONELLA TYPHIMURIUM, Strain/Indicator: TA1538, Metabolic Activation: HAMSTER, LIVER, S-9, AROCLOR 1254, Method: STANDARD PLATE) was “inactive; negative”, the mutagenic call (Test System: AMES SALMONELLA TYPHIMURIUM, Strain/Indicator: TA1538, Metabolic Activation: NONE, Method: STANDARD PLATE) was “inactive; negative” and the mutagenic call (Test System: AMES SALMONELLA TYPHIMURIUM, Strain/Indicator: TA1538, Metabolic Activation: RAT, LIVER, S-9, AROCLOR 1254, Method: STANDARD PLATE) was “inactive; negative”. For the same compound, the mutagenic call (Test System: MOUSE LYMPHOMA, Strain/Indicator: L5178Y (TK+/TK-), Metabolic Activation: NONE) was “active; positive”, the mutagenic call (Test System: MOUSE LYMPHOMA, Strain/Indicator: L5178Y (TK+/TK-), Metabolic Activation: NONE, Method: SUSPENSION/PLATE) was “inactive; negative. reevaluation of results: negative” and the mutagenic call (Test System: MOUSE LYMPHOMA, Strain/Indicator: L5178Y (TK+/TK-), Metabolic Activation: RAT, LIVER, S-9, AROCLOR 1254, Method: SUSPENSION/PLATE) was “inactive; negative. reevaluation of results: negative”. The mutagenic call (Test System: MOUSE LYMPHOMA, Strain/Indicator: L5178Y(TK+/TK-), Metabolic Activation: NONE, Method: MICROWELL) was “active; positive” and the mutagenic call (Test System: Mouse lymphoma, Strain/Indicator: L5178Y (tk+/tk-)/Trifluorothymidine, Metabolic Activation: None, Method: Microtiter) was “inactive; negative”.
In the case of `CCCCC/C=C\C/C=C\C/C=C\C/C=C\CCCC(=O)O`, the mutagenic call (Test System: CHINESE HAMSTER V-79, Strain/Indicator: V-79/6-THIOGUANINE, Metabolic Activation: NONE) is reported as “active; positive”.
With `CNC(=O)Oc1ccc(-c2ccccc2)cc1` the mutagenic call [2] was “inactive; negative” and the mutagenic call [6] was “active; positive”.
`CCCCCCC1CO1` (stereo not given) was tested, and the mutagenic call [3] was “inactive; negative”, the mutagenic call [5] was “inactive; negative” and the mutagenic call (Test System: UDS RAT HEPATOCYTES, Strain/Indicator: THY INCORP, Metabolic Activation: NONE) was “inactive; negative”.
`CCCCOCC(=O)O` was tested, and the mutagenic call (Test System: AMES SALMONELLA TYPHIMURIUM, Strain/Indicator: TA97A, Metabolic Activation: NONE, Method: STANDARD PLATE) was “inactive; negative”, the mutagenic call (Test System: AMES SALMONELLA TYPHIMURIUM, Strain/Indicator: TA97A, Metabolic Activation: RAT, LIVER, S-9, AROCLOR 1254, Method: STANDARD PLATE) was “inactive; negative” and the mutagenic call [1] was “inactive; negative”. The mutagenic call [2] was “inactive; negative”, the mutagenic call [3] was “inactive; negative” and the mutagenic call [4] was “inactive; negative”. The mutagenic call (Test System: AMES SALMONELLA TYPHIMURIUM, Strain/Indicator: TA102, Metabolic Activation: NONE, Method: STANDARD PLATE) was “inactive; negative” and the mutagenic call (Test System: AMES SALMONELLA TYPHIMURIUM, Strain/Indicator: TA102, Metabolic Activation: RAT, LIVER, S-9, AROCLOR 1254, Method: STANDARD PLATE) was “inactive; negative”.
`CCNC(=O)CC[C@H](N)C(=O)O` was tested, and the mutagenic call (Test System: AMES SALMONELLA TYPHIMURIUM, Strain/Indicator: TA97, Metabolic Activation: NONE, Method: PREINCUBATION) was “inactive; negative”, the mutagenic call (Test System: AMES SALMONELLA TYPHIMURIUM, Strain/Indicator: TA97, Metabolic Activation: RAT, LIVER, S-9, AROCLOR 1254, Method: PREINCUBATION) was “inactive; negative” and the mutagenic call (Test System: AMES SALMONELLA TYPHIMURIUM, Strain/Indicator: TA102, Metabolic Activation: NONE, Method: PREINCUBATION) was “inactive; negative”. For the same compound, the mutagenic call (Test System: AMES SALMONELLA TYPHIMURIUM, Strain/Indicator: TA102, Metabolic Activation: RAT, LIVER, S-9, AROCLOR 1254, Method: PREINCUBATION) was “inactive; negative”.
With `CC(=O)Nc1ccc(Oc2ccc(N)cc2)cc1` the mutagenic call [1] was “inactive; negative”, the mutagenic call (Test System: AMES SALMONELLA TYPHIMURIUM, Strain/Indicator: TA98, Metabolic Activation: RAT, LIVER, S-9, PCB, Method: STANDARD PLATE) was “active; positive” and the mutagenic call [3] was “inactive; negative”. For the same compound, the mutagenic call (Test System: AMES SALMONELLA TYPHIMURIUM, Strain/Indicator: TA100, Metabolic Activation: RAT, LIVER, S-9, PCB, Method: STANDARD PLATE) was “active; positive”.
`COc1ccc(CN(CCN(C)C)c2ncccn2)cc1` was tested, and the mutagenic call (Test System: AMES SALMONELLA TYPHIMURIUM, Strain/Indicator: TA98, Metabolic Activation: HAMSTER, LIVER, S-9, AROCLOR 1254 (10%), Method: PREINCUBATION) was “inactive; negative”, the mutagenic call (Test System: AMES SALMONELLA TYPHIMURIUM, Strain/Indicator: TA98, Metabolic Activation: NONE, Method: PREINCUBATION) was “inactive; negative” and the mutagenic call (Test System: AMES SALMONELLA TYPHIMURIUM, Strain/Indicator: TA98, Metabolic Activation: RAT, LIVER, S-9, AROCLOR 1254 (10%), Method: PREINCUBATION) was “inactive; negative”. For the same compound, the mutagenic call (Test System: AMES SALMONELLA TYPHIMURIUM, Strain/Indicator: TA100, Metabolic Activation: HAMSTER, LIVER, S-9, AROCLOR 1254 (10%), Method: PREINCUBATION) was “inactive; negative”, the mutagenic call (Test System: AMES SALMONELLA TYPHIMURIUM, Strain/Indicator: TA100, Metabolic Activation: NONE, Method: PREINCUBATION) was “inactive; negative” and the mutagenic call (Test System: AMES SALMONELLA TYPHIMURIUM, Strain/Indicator: TA100, Metabolic Activation: RAT, LIVER, S-9, AROCLOR 1254 (10%), Method: PREINCUBATION) was “inactive; negative”. The mutagenic call (Test System: AMES SALMONELLA TYPHIMURIUM, Strain/Indicator: TA1535, Metabolic Activation: HAMSTER, LIVER, S-9, AROCLOR 1254 (10%), Method: PREINCUBATION) was “inactive; negative”, the mutagenic call (Test System: AMES SALMONELLA TYPHIMURIUM, Strain/Indicator: TA1535, Metabolic Activation: NONE, Method: PREINCUBATION) was “inactive; negative” and the mutagenic call (Test System: AMES SALMONELLA TYPHIMURIUM, Strain/Indicator: TA1535, Metabolic Activation: RAT, LIVER, S-9, AROCLOR 1254 (10%), Method: PREINCUBATION) was “inactive; negative”. For the same compound, the mutagenic call (Test System: AMES SALMONELLA TYPHIMURIUM, Strain/Indicator: TA1537, Metabolic Activation: HAMSTER, LIVER, S-9, AROCLOR 1254 (10%), Method: PREINCUBATION) was “inactive; negative”, the mutagenic call (Test System: AMES SALMONELLA TYPHIMURIUM, Strain/Indicator: TA1537, Metabolic Activation: NONE, Method: PREINCUBATION) was “inactive; negative” and the mutagenic call (Test System: AMES SALMONELLA TYPHIMURIUM, Strain/Indicator: TA1537, Metabolic Activation: RAT, LIVER, S-9, AROCLOR 1254 (10%), Method: PREINCUBATION) was “inactive; negative”.
